From US11498899B2, “Nitrone herbicides” (FMC Corporation, priority 2016, dated 2022)

How the values were obtained:
[1] = system: barnyardgrass (Echinochloa crus-galli); assay: Test A preemergence, visual injury rating 0-100 (0 no effect, 100 complete control); format: in vivo
[2] = system: foxtail, giant (giant foxtail, Setaria faberii); assay: Test A preemergence, visual injury rating 0-100; format: in vivo
kochia (Kochia scoparia) [3] = assay: Test A preemergence, visual injury rating 0-100; format: in vivo
[4] = system: pigweed (Amaranthus retroflexus); assay: Test A preemergence, visual injury rating 0-100; format: in vivo
[5] = system: ragweed (common ragweed, Ambrosia elatior); assay: Test A preemergence, visual injury rating 0-100; format: in vivo
[6] = system: ryegrass, Italian (Italian ryegrass, Lolium multiflorum); assay: Test A preemergence, visual injury rating 0-100; format: in vivo
[7] = system: barnyardgrass (Echinochloa crus-galli); assay: Test A postemergence, visual injury rating 0-100; format: in vivo; conditions: 0 to 100 scale
Source text: (§1) Seeds of plant species selected from barnyardgrass (Echinochloa crus-galli), kochia (Kochia scoparia), ragweed (common ragweed, Ambrosia elatior), ryegrass, Italian (Italian ryegrass, Lolium multiflorum), foxtail, giant (giant foxtail, Setaria faberii), foxtail, green (green foxtail, Setaria viridis), and pigweed (Amaranthus retroflexus) were planted into a blend of loam soil and sand and treated preemergence with a directed soil spray using test chemicals formulated in a non-phytotoxic solvent mixture which included a surfactant.
(§2) At the same time, plants selected from these weed species and also wheat (Triticum aestivum), corn (Zea mays), blackgrass (Alopecurus myosuroides), and galium (catchweed bedstraw, Galium aparine) were planted in pots containing the same blend of loam soil and sand and treated with postemergence applications of test chemicals formulated in the same manner. Plants ranged in height from 2 to 10 cm and were in the one- to two-leaf stage for the postemergence treatment. Treated plants and untreated controls were maintained in a greenhouse for approximately 10 days, after which time all treated plants were compared to untreated controls and visually evaluated for injury. […] A dash (-) response means no test result.

[8] = system: blackgrass (Alopecurus myosuroides); assay: Test A postemergence, visual injury rating 0-100; format: in vivo; conditions: 0 to 100 scale
Source text: as §1, §2

corn (Zea mays) = assay: Test A postemergence, visual injury rating 0-100; format: in vivo; conditions: 0 to 100 scale
Source text: as §1, §2

[9] = system: foxtail, giant (giant foxtail, Setaria faberii); assay: Test A postemergence, visual injury rating 0-100; format: in vivo; conditions: 0 to 100 scale
Source text: as §1, §2

[10] = system: galium (catchweed bedstraw, Galium aparine); assay: Test A postemergence, visual injury rating 0-100; format: in vivo; conditions: 0 to 100 scale
Source text: as §1, §2

kochia (Kochia scoparia) [11] = assay: Test A postemergence, visual injury rating 0-100; format: in vivo; conditions: 0 to 100 scale
Source text: as §1, §2

[12] = system: pigweed (Amaranthus retroflexus); assay: Test A postemergence, visual injury rating 0-100; format: in vivo; conditions: 0 to 100 scale
Source text: as §1, §2

[13] = system: ragweed (common ragweed, Ambrosia elatior); assay: Test A postemergence, visual injury rating 0-100; format: in vivo; conditions: 0 to 100 scale
Source text: as §1, §2

[14] = system: ryegrass, Italian (Italian ryegrass, Lolium multiflorum); assay: Test A postemergence, visual injury rating 0-100; format: in vivo; conditions: 0 to 100 scale
Source text: as §1, §2

[15] = system: wheat (Triticum aestivum); assay: Test A postemergence, visual injury rating 0-100; format: in vivo; conditions: 0 to 100 scale
Source text: as §1, §2

[16] = system: ducksalad (Heteranthera limosa); assay: Test B flooded paddy test, visual rating 0-100; conditions: Flood, 250 g ai/ha, applied to paddy water, rated after 13 to 15 days
[17] = system: barnyardgrass (Echinochloa crus-galli); assay: Test B flooded paddy test, visual rating 0-100; conditions: Flood, 250 g ai/ha, applied to paddy water, rated after 13 to 15 days
rice (Oryza sativa) = assay: Test B flooded paddy test, visual rating 0-100 (0 no effect, 100 complete control); conditions: Flood, 250 g ai/ha, applied to paddy water, rated after 13 to 15 days
[18] = 31 g ai/ha, 0 to 100 scale (0 no effect, 100 complete control), approx. 10 days

Structure (SMILES)	Barnyardgrass plant response rating (0 to 100 scale) ([1]; 125 g ai/ha)	Foxtail, Giant plant response rating (0 to 100 scale) ([2]; 125 g ai/ha)	Kochia plant response rating (0 to 100 scale) (kochia (Kochia scoparia) [3]; 125 g ai/ha)	Kochia plant response rating (0 to 100 scale) (kochia (Kochia scoparia) [3]; 500 g ai/ha)	Pigweed plant response rating (0 to 100 scale) ([4]; 125 g ai/ha)	Ragweed plant response rating (0 to 100 scale) ([5]; 125 g ai/ha)	Ryegrass, Italian plant response rating (0 to 100 scale) ([6]; 125 g ai/ha)	Barnyardgrass plant response rating ([7]; 125 g ai/ha)	Blackgrass plant response rating ([8]; 125 g ai/ha)	Corn plant response rating (corn (Zea mays); 125 g ai/ha)	Foxtail, Giant plant response rating ([9]; 125 g ai/ha)	Galium plant response rating ([10]; 125 g ai/ha)	Kochia plant response rating (kochia (Kochia scoparia) [11]; 125 g ai/ha)	Pigweed plant response rating ([12]; 125 g ai/ha)	Ragweed plant response rating ([13]; 125 g ai/ha)	Ryegrass, Italian plant response rating ([14]; 125 g ai/ha)	Wheat plant response rating ([15]; 125 g ai/ha)	Ducksalad plant response rating (0 to 100 scale) [16]	Barnyardgrass plant response rating (0 to 100 scale) [17]	Rice plant response rating (0 to 100 scale) (rice (Oryza sativa))	other results
CC1=[N+]([O-])C(C(=O)Nc2cccc(F)c2F)C(c2cccc(C)n2)C1 (racemic) [Compound 49]	10	0	0	0	0	0	0	0	0	0	0	0	0	0	20	0	0	0	0	0	Barnyardgrass plant response rating ([1]; 500 g ai/ha, 0 to 100 scale): 20; Foxtail, Giant plant response rating ([2]; 500 g ai/ha, 0 to 100 scale): 40; Pigweed plant response rating (0 to 100 scale) ([4]; 500 g ai/ha): 0; Ragweed plant response rating (0 to 100 scale) ([5]; 500 g ai/ha): 0; Ryegrass, Italian plant response rating (0 to 100 scale) ([6]; 500 g ai/ha): 20; Barnyardgrass plant response rating ([7]; 500 g ai/ha): 0; Blackgrass plant response rating ([8]; 500 g ai/ha): 0; Corn plant response rating (corn (Zea mays); 500 g ai/ha): 0; Foxtail, Giant plant response rating ([9]; 500 g ai/ha): 0; Galium plant response rating ([10]; 500 g ai/ha): 0; Kochia plant response rating (kochia (Kochia scoparia) [11]; 500 g ai/ha): 0; Pigweed plant response rating ([12]; 500 g ai/ha): 0; Ragweed plant response rating ([13]; 500 g ai/ha): 20; Ryegrass, Italian plant response rating ([14]; 500 g ai/ha): 30; Wheat plant response rating ([15]; 500 g ai/ha): 0
CC1=[N+]([O-])C(C(=O)Nc2cccc(F)c2F)C(c2cc(F)cc(Oc3ccc(Cl)nc3)c2)C1 (racemic) [Compound 50]	50	90	30	70	0	0	0	0	40	0	10	0	0	0	0	0	0	0	0	0	Barnyardgrass plant response rating (0 to 100 scale) ([1]; 500 g ai/ha): 90; Foxtail, Giant plant response rating (0 to 100 scale) ([2]; 500 g ai/ha): 90; Pigweed plant response rating (0 to 100 scale) ([4]; 500 g ai/ha): 40; Ragweed plant response rating (0 to 100 scale) ([5]; 500 g ai/ha): 0; Ryegrass, Italian plant response rating (0 to 100 scale) ([6]; 500 g ai/ha): 80; Barnyardgrass plant response rating ([7]; 500 g ai/ha): 50; Blackgrass plant response rating ([8]; 500 g ai/ha): 70; Corn plant response rating (corn (Zea mays); 500 g ai/ha): 40; Foxtail, Giant plant response rating ([9]; 500 g ai/ha): 50; Galium plant response rating ([10]; 500 g ai/ha): 30; Kochia plant response rating (kochia (Kochia scoparia) [11]; 500 g ai/ha): 50; Pigweed plant response rating ([12]; 500 g ai/ha): 60; Ragweed plant response rating ([13]; 500 g ai/ha): 40; Ryegrass, Italian plant response rating ([14]; 500 g ai/ha): 20; Wheat plant response rating ([15]; 500 g ai/ha): 0
CC1=[N+]([O-])C(C(=O)Nc2cccc(F)c2F)C(c2ccc(F)c(Oc3ccc(Cl)nc3)c2)C1 (racemic) [Compound 51]	40	30	0	–	0	0	0	0	70	0	0	70	20	0	60	0	10	0	0	0	Barnyardgrass plant response rating [1, 18]: 0; Foxtail, Giant plant response rating [2, 18]: 0; Kochia plant response rating (kochia (Kochia scoparia) [3]; [18]): 0; Pigweed plant response rating [4, 18]: 0; Ragweed plant response rating [5, 18]: 0; Ryegrass, Italian plant response rating [6, 18]: 0; Barnyardgrass plant response rating ([7]; 31 g ai/ha): 0; Blackgrass plant response rating ([8]; 31 g ai/ha): 0; Corn plant response rating (corn (Zea mays); 31 g ai/ha): 0; Foxtail, Giant plant response rating ([9]; 31 g ai/ha): 0; Galium plant response rating ([10]; 31 g ai/ha): 60; Kochia plant response rating (kochia (Kochia scoparia) [11]; 31 g ai/ha): 0; Pigweed plant response rating ([12]; 31 g ai/ha): 0; Ragweed plant response rating ([13]; 31 g ai/ha): 0; Ryegrass, Italian plant response rating ([14]; 31 g ai/ha): 0; Wheat plant response rating ([15]; 31 g ai/ha): 0
CC1=[N+]([O-])C(C(=O)Nc2cccc(F)c2F)C(c2ccc(F)c(Oc3ncc(F)cn3)c2)C1 (racemic) [Compound 52]	90	80	0	20	0	0	80	30	30	0	0	20	0	0	0	20	10	0	0	0	Barnyardgrass plant response rating (0 to 100 scale) ([1]; 500 g ai/ha): 100; Foxtail, Giant plant response rating (0 to 100 scale) ([2]; 500 g ai/ha): 100; Pigweed plant response rating (0 to 100 scale) ([4]; 500 g ai/ha): 70; Ragweed plant response rating (0 to 100 scale) ([5]; 500 g ai/ha): 60; Ryegrass, Italian plant response rating (0 to 100 scale) ([6]; 500 g ai/ha): 90; Barnyardgrass plant response rating ([7]; 500 g ai/ha): 70; Blackgrass plant response rating ([8]; 500 g ai/ha): 70; Corn plant response rating (corn (Zea mays); 500 g ai/ha): 70; Foxtail, Giant plant response rating ([9]; 500 g ai/ha): 90; Galium plant response rating ([10]; 500 g ai/ha): 70; Kochia plant response rating (kochia (Kochia scoparia) [11]; 500 g ai/ha): 20; Pigweed plant response rating ([12]; 500 g ai/ha): 0; Ragweed plant response rating ([13]; 500 g ai/ha): 30; Ryegrass, Italian plant response rating ([14]; 500 g ai/ha): 60; Wheat plant response rating ([15]; 500 g ai/ha): 70
CC1=[N+]([O-])C(C(=O)Nc2cccc(F)c2F)C(c2cccc(Oc3ccc(Cl)cn3)c2)C1 (racemic) [Compound 56]	10	60	0	0	0	0	60	20	70	0	40	30	10	0	0	50	20	40	25	0	Barnyardgrass plant response rating (0 to 100 scale) ([1]; 500 g ai/ha): 90; Foxtail, Giant plant response rating (0 to 100 scale) ([2]; 500 g ai/ha): 90; Pigweed plant response rating (0 to 100 scale) ([4]; 500 g ai/ha): 0; Ragweed plant response rating (0 to 100 scale) ([5]; 500 g ai/ha): 0; Ryegrass, Italian plant response rating (0 to 100 scale) ([6]; 500 g ai/ha): 70; Barnyardgrass plant response rating ([7]; 500 g ai/ha): 60; Blackgrass plant response rating ([8]; 500 g ai/ha): 80; Corn plant response rating (corn (Zea mays); 500 g ai/ha): 40; Foxtail, Giant plant response rating ([9]; 500 g ai/ha): 40; Galium plant response rating ([10]; 500 g ai/ha): 50; Kochia plant response rating (kochia (Kochia scoparia) [11]; 500 g ai/ha): 20; Pigweed plant response rating ([12]; 500 g ai/ha): 30; Ragweed plant response rating ([13]; 500 g ai/ha): 20; Ryegrass, Italian plant response rating ([14]; 500 g ai/ha): 80; Wheat plant response rating ([15]; 500 g ai/ha): 40
